Reference: publication PMC9248904, “Genomic and Chemical Decryption of the Bacteroidetes Phylum for Its Potential to Biosynthesize Natural Products” (Microbiology Spectrum, 2022)
Values after ≈ are worked out from the molar mass of the structure shown. Like-named read-outs stand apart in the source and are kept apart here. *1 amine or outer side, *2 acyl side, *3 side chain or, on linkers, in order; H or OH if unused. Where a SMILES comes first, the peptide text is derived from it. Bridges are numbered along the chain shown (N, C = ends). [ ]: non-standard residue; d: D form. The star is where a group is joined. Phe(3R-OH) = O=C([C@@H](N[*:1])[C@H](O[*:3])c1ccccc1)[*:2]; Asp(3S-OH) = N[C@H](C(=O)O)[C@H](O)C(=O)O; Ile(3R-OH) = CC[C@@](C)(O)[C@H](N)C(=O)O; d(aIle) = CC[C@H](C)[C@@H](N)C(=O)O; d(aThr) = C[C@@H](O)[C@@H](N)C(=O)O; X1 = CC(C)CCCCCC(N)C(C)C(=O)*; NMeV = CN[C@H](C(=O)O)C(C)C; X2 = CCCCCCCC(N)C(C)C(=O)*; Dap = NC[C@H](N)C(=O)O

Experiments:
Z. tritici MUCL45407 = test: microbe, parasite or virus in culture; assay type: cell-based
Procedure: (§1) The MIC was determined by broth microdilution method in 96-well plates with 100 µL assay volume per well following EUCAST instructions ([116], [117]) for E. coli ATCC 35218, E. coli ATCC 25922 ΔTolC, E. coli MG1655, Pseudomonas aeruginosa ATCC 27853, P. aeruginosa PAO750, Klebsiella pneumoniae ATCC 13883, Moraxella catarrhalis ATCC 25238, Acinetobacter baumannii ATCC 19606, Bacillus subtilis DSM 10, Staphylococcus aureus ATCC 25923, and Micrococcus luteus DSM 20030. Listeria monocytogenes DSM 20600 (1 day of incubation at 37°C) and Mycobacterium smegmatis ATCC 607 (2 days of incubation at 37°C) were grown in BHI broth supplemented with 1% (vol/vol) Tween 80. Candida albicans FH2173 was grown in MHIIB over 2 days of incubation at 37°C (pre-culture 2 days at 28°C). Approximate inoculation cell density for all strains was 500,000 CFU/mL, except 1,000,000 CFU/mL were used for M. smegmatis and C. albicans. For all fungal screenings 100,000 spores/mL were used and incubated at 37°C for Aspergillus flavus ATCC 9170 (MHIIB) and 25°C for Z. tritici MUCL45407 (4 g/L yeast extract, 4 g/L malt extract, 4 g/L sucrose) and Fusarium oxysporum ATCC 7601 (potato dextrose broth, Sigma). Growth inhibition was detected by optical density (600 nm) or for M. luteus, L. monocytogenes, C. albicans, M. smegmatis, and all fungi by quantification of free ATP using BacTiter-Glo after 24 to 48 h (72 h for Z. tritici). All MIC assays were performed at least in triplicate. FE(III)-citrate was added at molar ratios of 1:1 to samples in DMSO to test compounds in their iron bound conformation.

[1] = system: Fusarium oxysporum ATCC 7601; test: microbe, parasite or virus in culture; assay type: cell-based
Procedure: as §1

Candida albicans FH2173 = test: microbe, parasite or virus in culture; assay type: cell-based; conditions: C. albicans FH2173, at least triplicate; for MIC: MHIIB, 2 days 37°C, BacTiter-Glo, Iron -
Procedure: as §1

P. aeruginosa PAO750 = assay type: cell-based, Pseudomonas aeruginosa; conditions: broth microdilution, 96-well, EUCAST, OD600, Iron -, at least triplicate
Procedure: as §1

[2] = system: Pseudomonas aeruginosa ATCC 27853; assay type: cell-based
Procedure: as §1

[3] = system: Klebsiella pneumoniae ATCC 13883; assay type: cell-based; conditions: ATCC 13883
Procedure: as §1

[4] = system: Moraxella catarrhalis ATCC 25238; assay type: cell-based
Procedure: as §1

[5] = system: Acinetobacter baumannii ATCC 19606; assay type: cell-based
Procedure: as §1

Bacillus subtilis DSM 10 = assay type: cell-based
Procedure: as §1

[6] = system: Micrococcus luteus DSM 20030; assay type: cell-based
Procedure: as §1

[7] = system: Staphylococcus aureus ATCC 25923; assay type: cell-based
Procedure: as §1

[8] = system: Aspergillus flavus ATCC 9170; test: microbe, parasite or virus in culture; assay type: cell-based
Procedure: as §1

E. coli MG1655 = assay type: cell-based, Escherichia coli; conditions: broth microdilution, 96-well, EUCAST, OD600, Iron -, at least triplicate
Procedure: as §1

E. coli ATCC 35218 = assay type: cell-based, Escherichia coli
Procedure: as §1

E. coli ATCC 25922 ΔTolC = assay type: cell-based, Escherichia coli; conditions: broth microdilution, 96-well, EUCAST, OD600, Iron -, at least triplicate
Procedure: as §1

[9] = system: Mycobacterium smegmatis ATCC 607; test: microbe, parasite or virus in culture; assay type: cell-based; conditions: M. smegmatis ATCC 607, BHI broth + 1% Tween 80, 2 days 37°C, BacTiter-Glo, Iron -, at least triplicate
Procedure: as §1

[10] = Fusarium oxysporum, ATCC7601, F. oxysporum ATCC 7601, potato dextrose broth, 25°C, 100,000 spores/mL, BacTiter-Glo, Iron -, at least triplicate, read-out: MIC
[11] = Candida albicans, 48 h, read-out: MIC
[12] = Z. tritici MUCL45407, 25°C, 72 h, 100,000 spores/mL, BacTiter-Glo, Iron -, at least triplicate
[13] = F. oxysporum ATCC 7601, potato dextrose broth, 25°C, 100,000 spores/mL, BacTiter-Glo, Iron -, at least triplicate
[14] = A. flavus ATCC 9170, MHIIB, 37°C, 100,000 spores/mL, BacTiter-Glo, Iron -, at least triplicate
[15] = P. aeruginosa ATCC 27853, broth microdilution, 96-well, EUCAST, OD600, Iron -, at least triplicate
[16] = M. catarrhalis ATCC 25238, broth microdilution, 96-well, EUCAST, OD600, Iron -, at least triplicate
[17] = A. baumannii ATCC 19606, broth microdilution, 96-well, EUCAST, OD600, Iron -, at least triplicate
[18] = B. subtilis DSM 10, broth microdilution, 96-well, EUCAST, OD600, Iron -, at least triplicate
[19] = M. luteus DSM 20030, broth microdilution, 96-well, free ATP (BacTiter-Glo), Iron -, at least triplicate
[20] = S. aureus ATCC 25923, broth microdilution, 96-well, EUCAST, OD600, Iron -, at least triplicate
[21] = E. coli ATCC 35218, broth microdilution, 96-well, EUCAST, OD600, chitinopeptins without iron (Iron -), at least triplicate

## C[C@@H]1[C@H](O)[C@@H](C)/C=C/C=C/C=C/C=C/C=C/C=C/C=C/[C@H](O[C@@H]2O[C@H](C)[C@@H](O)[C@H](N)[C@@H]2O)C[C@@H]2O[C@](O)(C[C@@H](O)C[C@@H](O)[C@H](O)CC[C@@H](O)C[C@@H](O)CC(=O)O[C@H]1C)C[C@H](O)[C@H]2C(=O)O [Amphotericin B, reference compound]
Z. tritici MUCL45407; Zymoseptoria tritici, MUCL45407, 72 h
  MIC: 0.031 µg/mL (≈ 0.0335 µM)
[1]; [10]
  MIC: 4 µg/mL (≈ 4.33 µM)
Candida albicans FH2173; [11]
  MIC: 4 µg/mL (≈ 4.33 µM)

## CC[C@H](C)[C@H]1NC(=O)[C@H]([C@H](O)c2ccccc2)NC(=O)[C@H]([C@H](O)C(=O)O)NC(=O)[C@@H](C)NC(=O)[C@H](NC(=O)[C@H](C(C)C)N(C)C(=O)C(C)C(N)CCCCCC(C)C)[C@@H](C)OC(=O)[C@H]([C@](C)(O)CC)NC(=O)[C@H]([C@H](O)C(=O)O)NC(=O)[C@H](CC(C)C)NC(=O)[C@H]([C@H](O)C(=O)O)NC(=O)[C@@H](CC(C)C)NC(=O)[C@H](CN)NC(=O)[C@@H](CCCCN)NC(=O)[C@H](CO)NC1=O (stereo partly drawn) [Chitinopeptin A] (X1-[NMeV][d(aThr)][dA][Asp(3S-OH)][Phe(3R-OH)][d(aIle)]S[dK][Dap][dL][Asp(3S-OH)]L[Asp(3S-OH)][Ile(3R-OH)]; ester 2-C)
P. aeruginosa PAO750
  MIC: > 64 µg/mL
[2]; ATCC 27853
  MIC: > 64 µg/mL
[3]
  MIC: > 64 µg/mL
[4]; ATCC 25238
  MIC: 2 µg/mL (≈ 1.11 µM)
  MIC, iron bound form: 4 µg/mL (≈ 2.21 µM)
[5]; ATCC 19606
  MIC: 16 µg/mL (≈ 8.84 µM)
Bacillus subtilis DSM 10; DSM 10
  MIC: 4 µg/mL (≈ 2.21 µM)
  MIC, iron bound form: 8 µg/mL (≈ 4.42 µM)
[6]; DSM 20030
  MIC: 32 µg/mL (≈ 17.7 µM)
[7]; ATCC 25923
  MIC: > 64 µg/mL
Z. tritici MUCL45407; [12]
  MIC: 16 µg/mL (≈ 8.84 µM)
[1]; ATCC 7601
  MIC: > 64 µg/mL
Candida albicans FH2173; Iron +: Fe(III)-citrate added at molar ratio 1:1
  MIC, iron bound form: 32 µg/mL
Candida albicans FH2173
  MIC: 4 µg/mL (≈ 2.21 µM)
Candida albicans FH2173; listed as 1
  MIC: 4 to 8 µg/mL
[8]; ATCC 9170
  MIC: > 64 µg/mL
E. coli MG1655
  MIC: > 256 µg/mL
E. coli ATCC 35218; ATCC 35218
  MIC: > 64 µg/mL
E. coli ATCC 25922 ΔTolC
  MIC: > 64 µg/mL

## CCCCCCCC(N)C(C)C(=O)N(C)[C@H](C(=O)N[C@H]1C(=O)N[C@H](C)C(=O)N[C@@H]([C@H](O)C(=O)O)C(=O)N[C@@H]([C@H](O)c2ccccc2)C(=O)N[C@H]([C@@H](C)CC)C(=O)N[C@@H](CO)C(=O)N[C@H](CCCCN)C(=O)N[C@@H](CN)C(=O)N[C@H](CC(C)C)C(=O)N[C@@H]([C@H](O)C(=O)O)C(=O)N[C@@H](CC(C)C)C(=O)N[C@@H]([C@H](O)C(=O)O)C(=O)N[C@@H]([C@](C)(O)CC)C(=O)O[C@@H]1C)C(C)C (stereo partly drawn) [Chitinopeptin B] (X2-[NMeV][d(aThr)][dA][Asp(3S-OH)][Phe(3R-OH)][d(aIle)]S[dK][Dap][dL][Asp(3S-OH)]L[Asp(3S-OH)][Ile(3R-OH)]; ester 2-C)
[2]; ATCC 27853
  MIC: > 64 µg/mL
[4]; ATCC 25238
  MIC: 2 µg/mL (≈ 1.11 µM)
[5]; ATCC 19606
  MIC: 64 µg/mL (≈ 35.7 µM)
Bacillus subtilis DSM 10; DSM 10
  MIC: 4 µg/mL (≈ 2.23 µM)
[6]; DSM 20030
  MIC: 32 µg/mL (≈ 17.8 µM)
[7]; ATCC 25923
  MIC: > 64 µg/mL
Z. tritici MUCL45407; [12]
  MIC: 16 µg/mL (≈ 8.91 µM)
[1]; ATCC 7601
  MIC: > 64 µg/mL
Candida albicans FH2173
  MIC: 8 µg/mL (≈ 4.46 µM)
Candida albicans FH2173; listed as 2
  MIC: 4 to 8 µg/mL
[8]; ATCC 9170
  MIC: > 64 µg/mL
E. coli ATCC 35218; ATCC 35218
  MIC: > 64 µg/mL
E. coli ATCC 25922 ΔTolC
  MIC: > 64 µg/mL

## NNC(=O)c1ccncc1 [Isoniazid, reference compound]
[9]; Mycolicibacterium smegmatis, ATCC607, 48 h, read-out: MIC
  MIC: 1 µg/mL

## C[C@@H]1[C@H](O)[C@@H](C)/C=C/C=C/CC/C=C/C=C/C=C/C=C/C(O[C@H]2O[C@H](C)[C@@H](O)[C@H](N)[C@@H]2O)CC2O[C@](O)(CC(O)C(O)CCC(O)CC(O)CC(O)CC(=O)O[C@H]1C)CC(O)C2C(=O)O (stereo partly drawn) [Nystatin, reference compound]
Z. tritici MUCL45407; [12]
  MIC: 0.5 µg/mL (≈ 0.54 µM)
[1]; [13]
  MIC: 4 µg/mL (≈ 4.32 µM)
Candida albicans FH2173
  MIC: 16 µg/mL (≈ 17.3 µM)
[8]; [14]
  MIC: 16 µg/mL (≈ 17.3 µM)

## CC(C)(C)C(O)(CCc1ccc(Cl)cc1)Cn1cncn1 (stereo not drawn) [Tebuconazole, reference compound]
Z. tritici MUCL45407; Zymoseptoria tritici, Z. tritici MUCL45407, 25°C, 72 h, 100,000 spores/mL, BacTiter-Glo, Iron -, at least triplicate, read-out: MIC
  MIC: 0.5 µg/mL (≈ 1.62 µM)
[1]; [10]
  MIC: > 64 µg/mL
Candida albicans FH2173; [11]
  MIC: 2 µg/mL (≈ 6.5 µM)
[8]; Aspergillus flavus, ATCC9170, A. flavus ATCC 9170, MHIIB, 37°C, 100,000 spores/mL, BacTiter-Glo, Iron -, at least triplicate, read-out: MIC
  MIC: 2 µg/mL (≈ 6.5 µM)

## Chitinopeptin C1+C2
[2]; [15]
  MIC: > 64 µg/mL
[4]; [16]
  MIC: 2 µg/mL
[5]; [17]
  MIC: 16 µg/mL
Bacillus subtilis DSM 10; [18]
  MIC: 4 µg/mL
[6]; [19]
  MIC: 32 µg/mL
[7]; [20]
  MIC: > 64 µg/mL
Z. tritici MUCL45407; [12]
  MIC: 16 µg/mL
[1]; [13]
  MIC: > 64 µg/mL
Candida albicans FH2173
  MIC: 16 µg/mL
[9]
  MIC: > 64 µg/mL
[8]; [14]
  MIC: 64 µg/mL
E. coli ATCC 35218; [21]
  MIC: > 64 µg/mL
E. coli ATCC 25922 ΔTolC
  MIC: > 64 µg/mL

## Chitinopeptin D1+D2
[2]; [15]
  MIC: > 64 µg/mL
[4]; [16]
  MIC: 2 µg/mL
[5]; [17]
  MIC: 16 µg/mL
Bacillus subtilis DSM 10; [18]
  MIC: 4 µg/mL
[6]; [19]
  MIC: 32 µg/mL
[7]; [20]
  MIC: > 64 µg/mL
[1]; [13]
  MIC: > 64 µg/mL
Candida albicans FH2173
  MIC: 16 µg/mL
[9]
  MIC: > 64 µg/mL
[8]; [14]
  MIC: 64 µg/mL
E. coli ATCC 35218; [21]
  MIC: > 64 µg/mL
E. coli ATCC 25922 ΔTolC
  MIC: > 64 µg/mL
